Tests used:
Type in all cases: in vivo, human
[1] = system: patients with infantile spasms (IS); assay: Clinical outcome assessment of ACTH treatment (spasms frequency, response, relapse); set-up: Sf diff (spasms frequency, baseline minus follow-up) / Seizure frequency, Follow-up / Spasms frequency Follow-up / Spasms frequency Change: unit not given here; details: for Spasms frequency Change / Spasms frequency Follow-up: median
Text: One-hundred-fifty (83 males; 55%) out of 170 patients were included for the clinical outcome assessment study. Mean age of spasms onset was 6.6 (±3.4) months. The mean time to treatment and follow-up duration were 39 (±50) and 38 (±49) days, respectively. Fifty-one out of 150 (34%) of patients had abnormal MRI findings.
The etiology of IS was: genetic/inborn metabolic in 28 (19%), unknown in 71 (47%), and structural brain abnormality (acquired and congenital) in 51 (34%). […] During the ACTH treatment, 86 (57%) patients were receiving concomitant ASMs (Table 1).
One hundred-one of 150 patients (67%) were deemed responders to the ACTH treatment at follow-up assessment, with IS cessation and resolution of hypsarrhythmia (Table 2). Thirty out of 101 initial responders (30%) experienced a relapse. Clinical parameters such as age of onset, sex, MRI finding, previous seizure history, previous and concomitant AED treatment, etiology, and baseline EEG were not prognostic factors for response and relapse (Tables 2-3).
(§1) Different criteria have been utilized to determine response to treatment in previous studies. Our EEG responder criteria are consistent with the criteria used in several previous studies, comprising IS freedom for at least seven consecutive days during treatment, and disappearance of hypsarrhythmia on follow-up EEG assessment. Although the presence of hypsarrhythmia has been considered crucial for the diagnosis and evaluating treatment response in IS, hypsarrhythmia may not be present at diagnosis in 25% of cases. Lack of hypsarrhythmia may be seen in patients with prior AED treatment, the early phase of IS, and late onset of spasms. […] Our findings highlight the importance of new quantitive biomarkers for evaluating EEGs in IS.

[2] = system: patients with infantile spasms (IS); assay: Quantitative EEG analysis (manual/automatic spike count, delta power) before and after ACTH treatment; details: for Delta Power Change / Spike Count (Automatic) Change / Spike Count (Manual) Change / Delta Power Follow-up / Spike Count (Manual) Follow-up / Spike Count (Automatic) Follow-up: median
Procedure: In act 602, EEG data of a subject is obtained in any manner described above in relation to act 102 of FIG. 1. In act 604, a power spectral density (PSD) of at least part of the EEG data is calculated. The PSD, as discussed above, provides information on the amount of power present in various frequency components of the EEG signal(s). As one non-limiting example, a Fast Fourier Transform (FFT) of one or more EEG signals may be performed to determine the PSD of the EEG signals. Suitable parameters of the FFT operation may include a time constant of 0.16 seconds, a sampling rate of 64 Hz, and/or an FFT window duration of 2 seconds. In some embodiments, a high-pass, low-pass and/or band-pass filter may be applied to EEG signals prior to generation of a PSD. For instance, frequencies above 35 Hz may be filtered from the EEG signals and a PSD generated based on the resulting filtered EEG signals. It will be appreciated that, because an FFT operates on a window of time of the EEG signal(s), a number of PSDs may be calculated for a number of (overlapping or non-overlapping) windows of time of the EEG signal(s). As a result, act 604 may be performed numerous times.
In act 606, a delta power is calculated based on a PSD calculated in act 604. In cases where a number of PSDs are calculated in act 604, a number of delta powers may be calculated in act 606 by calculating a delta power for each PSD. In some cases, the delta power may vary over time within the EEG signals obtained from a subject in a single session. In these cases, it may be preferable to obtain a single average value of the delta power from the EEG signals by, for instance, calculating the mean of the calculated delta power. Delta power may be calculated by determining the total spectral power present within the calculated PSD data between the frequency bounds of the delta band (e.g., 0.5 Hz to 4 Hz). In some cases, the delta power may be calculated by determining a total area under the PSD curve within the delta band's frequency range.
In act 702, EEG data of a subject is obtained in any manner described above in relation to act 102 of FIG. 1. In act 704, a plurality of wavelet coefficients may be calculated based on the EEG data obtained in act 702. As discussed above, wavelet analysis may represent a particularly desirable approach to identifying spikes due to the natural ability of wavelets to identify rapid changes in a signal's amplitude. Act 704 may comprise any suitable approach to determining wavelet coefficients, including a continuous wavelet transform (CWT), a discrete wavelet transform (DWT) and/or a stationary wavelet transform (SWT). In some embodiments, an SWT analysis may be preferable because the results are invariant with respect to time shifts, although a greater redundancy in data may be produced compared with a DWT analysis, for example. Any suitable wavelet family may be utilized during act 704, including haar, daubechies, biorthogonal, coiflets and/or symlets (e.g., symlet4).
In act 706, spikes are identified from the wavelet coefficients determined in act 704. Act 706 may comprise identifying a number of instances in which the wavelet coefficients have values above or below a suitable threshold that represents an incidence of a spike, to produce a spike count. A spike frequency may be determined by dividing the spike count by the total amount of time represented by the EEG data.
Fifty out of these 150 patients had original EEG data available for analysis met criteria for the comparison of baseline and follow-up electrophysiological evaluation.
The magnitude of changes in the EEG parameters (spike quantification and slow wave activity) were more prominent in patients responders as compared to non-responders (MSC diff: 169 vs.44 spikes; p<0.001, ASCA diff: 157 vs.55 spikes; p<0.001, DP diff: 11.3 vs.2.3, Sf diff: 158 vs. 60; p<0.05 respectively in responders vs. non-responders, Table 5).

[3] = system: patients with infantile spasms (IS); assay: EEG pattern (hypsarrhythmia) at follow-up assessment after ACTH treatment
Text: The presence of hypsarrhythmia is often used as a diagnostic criteria for IS, and is characterized by an abnormal interictal pattern consisting of high amplitude and irregular waves and spikes in a background of chaotic and disorganized activity within the EEG signals.
At baseline, 54 (36%) had hypsarrhythmia pattern, 75 (50%) had modified hypsarrhythmia pattern, and 21 (14%) had other abnormalities (without hypsarrhythmia) (Table 1). At the follow-up assessment, 58 patients with good response had abnormal EEG findings (abnormalities other than hypsarrhythmia, such as multifocal spikes or sharp waves, abnormal slow wave and fast activity). In terms of the EEG pattern, there was no difference between poor- and good responders, and between the patients who relapsed and the sustained responders (Tables 2-3).
as §1

[4] = Patients without Relapse (n: 20)
[5] = percentage of 101 initial responders
[6] = patients with sustained response

With “Adrenocorticotropic hormone (SYSMEHFRWGKPVGKKRRPVKVYPNGAEDESAEAFPLEF; Corticotropin; UniProt P01189 138-176, looked up) [ACTH, polypeptide tropic hormone produced by and secreted by the anterior pituitary gland; used to treat infantile spasms]” the “relapse rate among initial responders” value ([1]; 30 of 101 initial responders) was 30%, the “response rate (responders to the ACTH treatment at follow-up: IS cessation and resolution of hypsarrhythmia)” value ([1]; 101 of 150 patients, follow-up after day 14 of treatment) was 67% and the “Spasms frequency follow up/week” value ([1]; Good Response (n): 101, baseline 318) was 80 /week. The “Spasms frequency Change” value ([1]; Good responder (n: 31)) was 84, the “Spasms frequency Follow-up” value ([1]; Good responder (n: 31), baseline 122) was 0 and the “Spasms frequency Change” value ([1]; Patients with Relapse (n: 11)) was 11. For the same substance, the “Spasms frequency Follow-up” value ([1]; Patients with Relapse (n: 11), baseline 140) was 42, the “Spasms frequency Change” value [1, 4] was 117 and the “Spasms frequency Follow-up” value ([1]; Patients without Relapse (n: 20), baseline 117) was 0. For the same substance, the “Spasms frequency follow up/week” value ([1]; Poor Response (n): 49, baseline 242) was 233 /week, the “Spasms frequency Change” value ([1]; Poor responder (n: 19)) was 43 and the “Spasms frequency Follow-up” value ([1]; Poor responder (n: 19), baseline 105) was 70. For the same substance, the “Spasms frequency follow up/week” value ([1]; Relapse (n): 30, baseline 311) was 270 /week, the “Spasms frequency follow up/week” value ([1]; Without Relapse (n): 71, baseline 322) was 0 /week and the “Seizure frequency, Follow-up” value ([1]; n: 50, mean, baseline 192) was 70. The “Clinical response No, number of patients” value ([1]; n: 150) was 49, the “Clinical response Yes, number of patients” value ([1]; n: 150, IS cessation and resolution of hypsarrhythmia at follow-up) was 101 and the “spasm frequency after ACTH treatment (median weekly)” value ([1]; n: 150, before treatment 294, p<0.001) was 130. For the same substance, the “Follow up spasms frequency” value ([1]; n: 150, mean (SD), baseline 294/week) was 130 /week, the “Sf diff (spasms frequency, baseline minus follow-up)” value ([1]; non-responders) was 60 and the “Relapse (if good response exist) No, number of patients” value ([1]; of 101 initial responders) was 71. For the same substance, the “Relapse (if good response exist) Yes, number of patients” value ([1]; of 101 initial responders) was 30, the “Relapse (if good response exist) No, share of patients” value [1, 5] was “(70.3)” and the “Relapse (if good response exist) Yes, share of patients” value [1, 5] was “(29.7)”. The “Clinical response No, share of patients” value ([1]; percentage of n: 150) was “(32.7)”, the “Clinical response Yes, share of patients” value ([1]; percentage of n: 150) was “(67.3)” and the “Sf diff (spasms frequency, baseline minus follow-up)” value ([1]; responders) was 158. For the same substance, the “Delta Power Change” value ([2]; Good responder (n: 31)) was 10.2, the “Spike Count (Automatic) Change” value ([2]; Good responder (n: 31)) was 144 and the “Spike Count (Manual) Change” value ([2]; Good responder (n: 31)) was 153. The “Delta Power Follow-up” value ([2]; Good responder (n: 31), baseline 24.7) was 13.4, the “Spike Count (Manual) Follow-up” value ([2]; Good responder (n: 31), baseline 232) was 48 and the “Spike Count (Automatic) Follow-up” value ([2]; Good responder (n: 31), baseline 244) was 53. For the same substance, the “Delta Power Change” value ([2]; Patients with Relapse (n: 11)) was 6, the “Spike Count (Automatic) Change” value ([2]; Patients with Relapse (n: 11)) was 50 and the “Spike Count (Manual) Change” value ([2]; Patients with Relapse (n: 11)) was 51. The “Delta Power Follow-up” value ([2]; Patients with Relapse (n: 11), baseline 23.6) was 17.1, the “Spike Count (Manual) Follow-up” value ([2]; Patients with Relapse (n: 11), baseline 187) was 86 and the “Spike Count (Automatic) Follow-up” value ([2]; Patients with Relapse (n: 11), baseline 197) was 117. The “Delta Power Change” value [2, 4] was 14.6, the “Spike Count (Automatic) Change” value [2, 4] was 176 and the “Spike Count (Manual) Change” value [2, 4] was 212. For the same substance, the “Delta Power Follow-up” value ([2]; Patients without Relapse (n: 20), baseline 26.4) was 10.5, the “Spike Count (Manual) Follow-up” value ([2]; Patients without Relapse (n: 20), baseline 247) was 10 and the “Spike Count (Automatic) Follow-up” value ([2]; Patients without Relapse (n: 20), baseline 257) was 28.5. For the same substance, the “Delta Power Change” value ([2]; Poor responder (n: 19)) was 3.1, the “Spike Count (Automatic) Change” value ([2]; Poor responder (n: 19)) was 47 and the “Spike Count (Manual) Change” value ([2]; Poor responder (n: 19)) was 52. The “Delta Power Follow-up” value ([2]; Poor responder (n: 19), baseline 21.7) was 19.5, the “Spike Count (Automatic) Follow-up” value ([2]; Poor responder (n: 19), baseline 236) was 152 and the “Spike Count (Manual) Follow-up” value ([2]; Poor responder (n: 19), baseline 242) was 168. The “DP (delta power) at follow-up EEG” value ([2]; n: 50, baseline 25.1, p<0.001) was 17.2 μV, the “Delta Power, Follow-up EEG” value ([2]; n: 50, mean, baseline 25.1) was 17.2 and the “Spike Count Automatic, Follow-up EEG” value ([2]; n: 50, mean, baseline 232) was 113. The “Spike Count Manual, Follow-up EEG” value ([2]; n: 50, mean, baseline 234) was 112, the “ASCA diff (automatic spike count, baseline minus follow-up)” value ([2]; patients who relapsed) was 75 and the “DP diff (delta power, baseline minus follow-up)” value ([2]; patients who relapsed) was 5.4. For the same substance, the “MSC diff (manual spike count, baseline minus follow-up)” value ([2]; patients who relapsed) was 76, the “ASCA diff (automatic spike count, baseline minus follow-up)” value [2, 6] was 202 and the “DP diff (delta power, baseline minus follow-up)” value [2, 6] was 14.6. For the same substance, the “MSC diff (manual spike count, baseline minus follow-up)” value [2, 6] was 220, the “ASCA diff (automatic spike count, baseline minus follow-up)” value ([2]; responders) was 157 spikes and the “DP diff (delta power, baseline minus follow-up)” value ([2]; responders) was 11.3. For the same substance, the “MSC diff (manual spike count, baseline minus follow-up)” value ([2]; responders) was 169 spikes, the “Follow-up EEG features: Normal EEG, number of patients” value ([3]; n: 150) was 44 and the “Follow-up EEG features: Without Hypsarrhythmia, number of patients” value ([3]; n: 150, baseline 21) was 94. For the same substance, the “Follow-up EEG features: Hypsarrhythmia, number of patients” value ([3]; n: 150, baseline 54) was 6, the “Follow-up EEG features: Modified Hypsarrhythmia, number of patients” value ([3]; n: 150, baseline 75) was 6 and the “Follow-up EEG features: Normal EEG, share of patients” value ([3]; percentage of n: 150) was “(29.3)”. The “Follow-up EEG features: Without Hypsarrhythmia, share of patients” value ([3]; percentage of n: 150, baseline (14)) was “(62.7)”, the “Follow-up EEG features: Hypsarrhythmia, share of patients” value ([3]; percentage of n: 150, baseline (36)) was “(4)” and the “Follow-up EEG features: Modified Hypsarrhythmia, share of patients” value ([3]; percentage of n: 150, baseline (50)) was “(4)”.
